Laboratory results reported in patent publication US5378846A, “1,2,3,4-tetrahydropyrrolo-[1,2-a]-pyrazine derivatives” (Russian-American Institute For New Drug Development, priority 1993, dated 1995).
Entries after “also recorded” stand apart in the source; their conditions may differ.

Columns and labels:
[1] = test system: rat behavior in Vogel conflict test; assay: Vogel conflict test (anxiolytic activity, punished responses in water-deprived rats); type: in vivo, outbred male albino rats
Description: Compounds according to the present invention were checked for their anxiolytic activity. Behaviour suppressed by punishment is a very reliable indicator of the anxiolytic activity of drugs. A variant of the conflict situation test was used to reveal anxiety in water-deprived rats whose licking was suppressed by shock (see Vogel et al., Phychopharmacologia, 21, 1-7 (1971); J. E. Barrett in Animal Models in Psychopharmacology, Advances in Pharmacological Sciences, 1991; and Birkhauser Verlag, Basel, p. 37.52, Molodavkin et al., Exper. Clin. Pharmacol., 56, (1993), which are incorporated herein by reference).
The experiments were carried out using outbred male albino rats (180-220 g). This experiment involved previous training of water-deprived rats to drink water from a trough. Next day electrical stimulation was given delivering 0.5 mA electric shocks through the trough and metal grid floor of the experimental chamber. A conflict situation was created by clashing motivations (survival and self defense). The degree of anxiolytic activity was estimated by the measurement of the amount of punished licks for 10 min. Each compound was administered intraperitoneally 45 min. before the conflict test.

[2] = test system: locomotor activity in mice; assay: Locomotor activity in mice (actometer); type: in vivo, outbred male mice; settings: for The number of movements for 3 min., horizontal activity / The number of movements for 3 min., vertical activity: i.p.
Protocol: (§1) Compounds according to the present invention were checked for their influence on gross behaviour. The experiments described herein (Examples 11, 12, 13, 14, and 15) were carried out using outbred male mice weighing approximately 18-24 g. Each substance was administered intraperitoneally 45 min. before the experiment. Locomotor activity was estimated individually for each animal for 3 min. using an actometer `Era-1` (Russia).

[3] = test system: duration of immobility in mice; assay: Behavioural despair test (forced swimming); type: in vivo, outbred male mice; settings: for The duration of immobility: i.p.
Protocol: as §1
The influence of compounds on behavioral despair was studied according to the model described by Porsolt et al., Arch. int. pharmacodyn.et ther., 228, 327-[…] (1977), which is incorporated herein by reference. Mice, when forced to swim in a cylinder of water without the possibility of escape, rapidly adopt a characteristic immobile posture. […] The only movements they make are those necessary to keep their heads above water.

[4] = test system: aggressive behavior in mice; assay: Antiaggressive activity (threshold of aggressive behavior, electrified floor); type: in vivo, outbred male mice
Protocol: as §1
The effect of Compound 1 on the threshold of the aggressive behavior was determined in the experiment on outbred mice (R. Tedesci et al., J. Pharmacol. Exp. Ther., 125, 28-34, (1959), which is incorporated herein by reference). The paired mice were placed on the electrified floor. The strength of the current, which provoked the fighting, was recorded.

[5] = test system: convulsive effect of pentylenetetrazole in mice; assay: Convulsive effect of pentylenetetrazole; type: in vivo, outbred male mice
Protocol: as §1
The influence of Compound 1 on the latency of convulsions and on the duration of animals' lives after pentylenetetrazole (130 mg/kg subcutaneously) was studied in outbred mice.

BALB/c mice = assay: Open field test, BALB/c mice; type: in vivo, male BALB/c mice; settings: for Central activity / Crosses of Squires / Emotionality (N. of defec.) / Total locomotor activity / Vert. stands: BALB/c, i.p.
Protocol: The effects of Compound 1 on different emotional stress reactions (ESR) in male mice of C57 B1/6 and BALB/c strains were studied. ESR indices were evaluated as changes in mice ambulations, defecations and motor activity in an "open field" test (Seredenin S. B., Vedernikov, A. A., Bull. Exp. Biol. Med., 100, No. 7, 38-40 (1979), which is incorporated herein by reference). Compound 1 was injected in different doses intraperitoneally 45 min. before test.

memory formation in rats = assay: Passive avoidance test, step-through (memory formation, retention); type: in vivo, outbred male albino rats
Protocol: The influence of Compound 1 on memory formation was studied in a passive avoidance test, step-through paradigm (equipment of Laffaette Co., USA). The experiments were carried out on outbred male albino rats ([…]). Compound 1 and other drugs were administered intraperitoneally 45 min. before the passive avoidance training. The retention was tested 24 hours later learning (painful electroshock in the dark compartment) by the measurement of the time spent in the dark compartment for 3 min.

motor behavior in mice [6] = assay: Rotating rod test (coordination of movements and myorelaxation); settings: for Disturbances according to rotating rod test, effect in %: mice
Protocol: (§2) The influence of Compound 1 on the motor behavior was studied according to a "rotating rod" test and a "horizontal wire" test in outbred male mice (18-22 g). A rotating rod (2 cm diameter and 5 rpm speed) was used. Acquisition was defined as the ability to remain on the rotating rod for 2 min. Each animal had two trials. According to the "horizontal wire" test a mouse was hung on the wire (0.3 cm. diameter, wire was fixed horizontally 40 cm above the floor) by the forepaws. The ability to pull the hind legs up to the wire for 2 min. was a criterion of test performance.

motor behavior in mice [7] = assay: Horizontal wire test (coordination of movements and myorelaxation); settings: mice
Protocol: as §2

[8] = 10 mg/kg + pentylenetetrazole 130 mg/kg s.c.
[9] = rat, 5.0 mg/kg i.p., retention 24 hours later, 3 min

## O=C(O)CCC(=O)O.c1cc2n(c1)CCNC2 [Compound 1, 1,2,3,4-tetrahydropyrrolo-[1,2-a]-pyrazine hydrosuccinate]
[1]; 5 mg/kg i.p. once daily for 40 days
  Anxiolytic effectiveness after chronic administration, in words: anxiolytic effectiveness of Compound 1 is preserved after its chronic administration
[1]; rat, 2.0 mg/kg i.p., 45 min before test, Table 1
  The number of punished responses: 43.52 ± 14.8
[1]; rat, acute administration, 5 mg/kg, Table 3
  The number of punished responses: 49.52 ± 15.91
[1]; rat, chronic administration, 5 mg/kg i.p. once daily for 40 days, Table 3
  The number of punished responses: 85.8 ± 6.7
[1]; rat, i.p., dose 0.5 mg/kg, Table 2
  The number of punished responses: 49.88 ± 19.27
[1]; rat, i.p., dose 1.0 mg/kg, Table 2
  The number of punished responses: 41.29 ± 16.71
[1]; rat, i.p., dose 2.0 mg/kg, Table 2
  The number of punished responses: 43.52 ± 14.8
[1]; rat, i.p., dose 5.0 mg/kg, Table 2
  The number of punished responses: 29.88 ± 13.13
[1]; rat, i.p., dose 10.0 mg/kg, Table 2
  The number of punished responses: 30.88 ± 10.93
[1]; rat, i.p., Compound 1 vs diazepam: 0.5-2 mg/kg vs 1 and 2 mg/kg
  Anxiolytic effect in Vogel conflict test, in words: increase the amount of punished responses in a Vogel conflict test after acute and chronic administration; also recorded: displayed more anxiolytic effect than diazepam
[2]; 0.1-0.3 mg/kg i.p.
  Influence on spontaneous motor activity, in words: neither stimulated nor depressed the spontaneous motor activity
[2]; 0.1 mg/kg
  The number of movements for 3 min., horizontal activity: 650.8 ± 12.5
  The number of movements for 3 min., vertical activity: 24.7 ± 2.5
[2]; 0.3 mg/kg
  The number of movements for 3 min., horizontal activity: 657.7 ± 15.5
  The number of movements for 3 min., vertical activity: 25.2 ± 4.1
[3]; forced swimming
  Influence on duration of immobility, in words: did not show any activity; also recorded: does not change the duration of immobility
[3]; 5.0 mg/kg
  The duration of immobility: 117.3 ± 6.9 s
[3]; 10.0 mg/kg
  The duration of immobility: 110.8 ± 5.1 s
[4]
  Effect on threshold of aggressive response, in words: increase the threshold of aggressive response; also recorded: able to enhance the threshold of aggressive response
[4]; 0.5 mg/kg i.p.
  Aggression threshold: 67.2 ± 1.7 V
[4]; 5.0 mg/kg i.p.
  Aggression threshold: 90.8 ± 4.9 V
[5]; [8]
  Duration of animal survival: 7.3 ± 1.0 min
  Latency of clon.: 3.35 ± 0.7 min
  Latency of ton.: 7.06 ± 1.0 min
[5]; pentylenetetrazole 130 mg/kg subcutaneously
  Effect on latency of convulsions and animal survival after pentylenetetrazole, in words: increase the duration of animals' survival after pentylenetetrazole injection; also recorded: causes prolongation of the latency of convulsions and of animal survival after pentylenetetrazole
BALB/c mice; 2.5 and 5.0 mg/kg i.p.
  Open field behavior of BALB/c mice, in words: produces activating (anxiolytic) effect in initially low active BALB/c mice; also recorded: caused ambulation increase elevating the central activity, and defecation decrease in BALB/c mice
BALB/c mice; 0.1 mg/kg
  Central activity: 0.0
  Crosses of Squires: 21.2 ± 5.8
  Emotionality (N. of defec.): 0.5 ± 0.17
  Total locomotor activity: 21.2 ± 5.8
  Vert. stands: 0.0
BALB/c mice; 1.0 mg/kg
  Central activity: 0.4 ± 0.3
  Crosses of Squires: 25.6 ± 4.6
  Emotionality (N. of defec.): 1.2 ± 0.13
  Total locomotor activity: 26.1 ± 4.6
  Vert. stands: 0.1 ± 0.1
BALB/c mice; 5.0 mg/kg
  Central activity: 2.4 ± 0.9
  Crosses of Squires: 29.8 ± 5.2
  Emotionality (N. of defec.): 0.45 ± 0.11
  Total locomotor activity: 33.0 ± 6.1
  Vert. stands: 0.9 ± 0.5
Memory formation in rats; passive avoidance
  Influence on learning and memory formation, in words: able to facilitate memory trace formation; also recorded: able to facilitate the learning ability: the time spent in the dark compartment was significantly decreased
Memory formation in rats; [9]
  The time spent in dark compartment: 15.9 ± 3.4 s
  The time spent in light compartment: 164.1 ± 9.4 s
Motor behavior in mice [6]; dose 5.0
  Disturbances according to rotating rod test, effect in %: 0%
Motor behavior in mice [6]; dose 10.0
  Disturbances according to rotating rod test, effect in %: 0%
Motor behavior in mice [6]; dose 20.0
  Disturbances according to rotating rod test, effect in %: 0%
Motor behavior in mice [6]; dose 40.0
  Disturbances according to rotating rod test, effect in %: 0%
Motor behavior in mice [6]; dose 80.0
  Disturbances according to rotating rod test, effect in %: 0%
Motor behavior in mice [6]; dose 250.0
  Disturbances according to rotating rod test, effect in %: 0%
Motor behavior in mice [6]; rotating rod and horizontal wire tests, Compound 1 5-250 mg/kg
  Motor behavior disturbance and myorelaxation, in words: does not manifest amnestic and myorelaxant effects; also recorded: fails to evoke disturbances in the coordination of movements and myorelaxation
Motor behavior in mice [7]; dose 5.0
  Disturbances according to horizontal wire test, effect in %: 0%
Motor behavior in mice [7]; dose 10.0
  Disturbances according to horizontal wire test, effect in %: 0%
Motor behavior in mice [7]; dose 20.0
  Disturbances according to horizontal wire test, effect in %: 0%
Motor behavior in mice [7]; dose 40.0
  Disturbances according to horizontal wire test, effect in %: 0%
Motor behavior in mice [7]; dose 80.0
  Disturbances according to horizontal wire test, effect in %: 0%
Motor behavior in mice [7]; dose 250.0
  Disturbances according to horizontal wire test, effect in %: 0%
